Reference: US20250049970A1, “DLL3 TARGETING PEPTIDES AND CONSTRUCTS THEREOF” (MARIANA ONCOLOGY INC., priority 2023, published 2025)
*1 amine or outer side, *2 acyl side, *3 side chain or, on linkers, in order; H or OH if unused. Where a SMILES comes first, the peptide text is derived from it. Bridges are numbered along the chain shown (N, C = ends). Side-chain parts run from the residue outwards. [ ]: non-standard residue; d: D form. The star is where a group is joined. ξ: configuration not given here. Ala(1-CH2CO2H-4-piperidyl) = N[C@@H](CC1CCN(CC(=O)O)CC1)C(=O)O; Ala(piperidin-4-yl) = O=C([C@H](CC1CCN([*:3])CC1)N[*:1])[*:2]; DOTA = O=C(O)CN1CCN(CC(=O)O)CCN(CC(=O)*)CCN(CC(=O)O)CC1; Me3N+(CH2)2O(CH2)2O(CH2)2CO = C[N+](C)(C)CCOCCOCCC(=O)*; X3 = O=C([C@H](CC1CCN(CC(=O)[*:3])CC1)N[*:1])[*:2]; 2Nal = N[C@@H](Cc1ccc2ccccc2c1)C(=O)O; NMetBuAla = CN[C@@H](CC(C)(C)C)C(=O)O; Ethylenediamine = C(CN[*:2])N[*:1]; Thr(3ξ) = CC(O)[C@H](N)C(=O)O; αMeP = C[C@@]1(C(=O)O)CCCN1; CH2 = C([*:1])[*:2]

biological target: T1, DLL3 (Homo sapiens, UniProt Q9NYJ7); test: SPR KD, biotinylated human DLL3 on streptavidin chip (Table 8); parameters: biotin (biotinylated); conditions: biotinylated human DLL3 on streptavidin sensor chip, 25° C., 1:1 binding model; read-out: SPR KD
T1 sequence (Q9NYJ7 27-618): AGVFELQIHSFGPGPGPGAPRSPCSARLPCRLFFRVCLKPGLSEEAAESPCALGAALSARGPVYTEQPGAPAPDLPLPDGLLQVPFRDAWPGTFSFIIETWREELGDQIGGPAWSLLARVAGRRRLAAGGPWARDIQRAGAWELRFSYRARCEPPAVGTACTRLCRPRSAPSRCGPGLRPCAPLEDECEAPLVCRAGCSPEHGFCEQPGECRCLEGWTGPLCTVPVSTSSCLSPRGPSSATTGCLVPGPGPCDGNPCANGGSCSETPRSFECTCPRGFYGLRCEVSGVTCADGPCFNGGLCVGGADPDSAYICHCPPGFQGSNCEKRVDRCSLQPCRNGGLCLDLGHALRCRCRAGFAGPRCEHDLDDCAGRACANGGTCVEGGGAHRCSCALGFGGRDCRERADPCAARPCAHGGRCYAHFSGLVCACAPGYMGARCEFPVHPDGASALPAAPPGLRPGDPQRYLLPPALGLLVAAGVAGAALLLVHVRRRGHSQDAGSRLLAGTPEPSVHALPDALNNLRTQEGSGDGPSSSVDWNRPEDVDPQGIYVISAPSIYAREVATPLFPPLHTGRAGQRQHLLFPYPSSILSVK
Excerpt: Biotinylated target ligand human DLL3 was immobilized on a streptavidin sensor chip. A reference surface was set up for nonspecific binding and refractive index changes. […] Sensorgram curves were fitted with 1:1 binding model, and affinity and kinetic parameters were obtained using Biacore Insight evaluation 4.0. software.

Row | SMILES | Kd [nM]
1 | CC(=O)N[C@@H](Cc1c[nH]c2ccccc12)C(=O)N[C@H](C(=O)N(C)[C@@H](CC(C)(C)C)C(=O)N[C@H]1CSCSC[C@@H](C(=O)N[C@@H](Cc2c[nH]c3ccccc23)C(=O)N2CCC[C@@]2(C)C(=O)O)NC(=O)[C@H](CC(=O)O)NC(=O)[C@H](CCCCNC(=O)CN2CCN(CC(=O)O)CCN(CC(=O)O)CCN(CC(=O)O)CC2)NC(=O)[C@H](Cc2ccc3ccccc3c2)NC(=O)[C@H](CC(N)=O)NC(=O)[C@H](CC2CCNCC2)NC1=O)C(C)O (stereo partly drawn) [compound 443, Ac-W-T-(NMe-tBuAla)-C(1)-[3-(4-piperidinyl)-Ala]-N-(2Nal)-Lys(DOTA)-D-C(1)-W-(aMe-P)-CO2H] (Ac-W[Thr(3ξ)][NMetBuAla]C[Ala(piperidin-4-yl)]N[2Nal]K(DOTA)DCW[αMeP]-OH; linker 4-10 via CH2) | < 1
2 | CC(=O)N[C@@H](Cc1c[nH]c2ccccc12)C(=O)N[C@H](C(=O)N(C)[C@@H](CC(C)(C)C)C(=O)N[C@H]1CSCSC[C@@H](C(=O)N[C@@H](Cc2c[nH]c3ccccc23)C(=O)N2CCC[C@H]2C(N)=O)NC(=O)[C@H](CC(=O)O)NC(=O)[C@H](CCCCNC(=O)CN2CCN(CC(=O)O)CCN(CC(=O)O)CCN(CC(=O)O)CC2)NC(=O)[C@H](Cc2ccc3ccccc3c2)NC(=O)[C@H](CC(N)=O)NC(=O)[C@H](CC2CCN(CC(=O)O)CC2)NC1=O)[C@@H](C)O [compound 447] (Ac-WT[NMetBuAla]C[Ala(1-CH2CO2H-4-piperidyl)]N[2Nal]K(DOTA)DCWP-NH2; linker 4-10 via CH2) | < 1
3 | CC(=O)N[C@@H](Cc1c[nH]c2ccccc12)C(=O)N[C@H](C(=O)N(C)[C@@H](CC(C)(C)C)C(=O)N[C@H]1CSCSC[C@@H](C(=O)N[C@@H](Cc2c[nH]c3ccccc23)C(=O)N2CCC[C@H]2C(N)=O)NC(=O)[C@H](CC(=O)O)NC(=O)[C@H](CCCCNC(=O)CN2CCN(CC(=O)O)CCN(CC(=O)O)CCN(CC(=O)O)CC2)NC(=O)[C@H](Cc2ccc3ccccc3c2)NC(=O)[C@H](CC(N)=O)NC(=O)[C@H](CC2CCN(C(=O)CCOCCOCC[N+](C)(C)C)CC2)NC1=O)[C@@H](C)O [compound 448] (Ac-WT[NMetBuAla]C[Ala(piperidin-4-yl)](Me3N+(CH2)2O(CH2)2O(CH2)2CO)N[2Nal]K(DOTA)DCWP-NH2; linker 4-10 via CH2) | < 1
4 | CC(=O)N[C@@H](Cc1c[nH]c2ccccc12)C(=O)N[C@H](C(=O)N(C)[C@@H](CC(C)(C)C)C(=O)N[C@H]1CSCSC[C@@H](C(=O)N[C@@H](Cc2c[nH]c3ccccc23)C(=O)N2CCC[C@H]2C(N)=O)NC(=O)[C@H](CC(=O)O)NC(=O)[C@H](CCCCNC(=O)CN2CCN(CC(=O)O)CCN(CC(=O)O)CCN(CC(=O)O)CC2)NC(=O)[C@H](Cc2ccc3ccccc3c2)NC(=O)[C@H](CC(N)=O)NC(=O)[C@H](CC2CCN(CC(=O)NCCNC(=O)CN3CCN(CC(=O)O)CCN(CC(=O)O)CCN(CC(=O)O)CC3)CC2)NC1=O)[C@@H](C)O [compound 449] (Ac-WT[NMetBuAla]C[X3]([Ethylenediamine-DOTA])N[2Nal]K(DOTA)DCWP-NH2; linker 4-10 via CH2) | < 1
5 | CCCCCCCCCCCCCCCC(=O)N[C@@H](CCC(=O)NCCOCCOCCOCCOCCOCCOCCOCCOCCOCCOCCOCCOCCOCCOCCOCCOCCOCCOCCOCCOCCOCCOCCOCCOCCC(=O)NCCCC[C@H](NC(=O)CN1CCC(C[C@@H]2NC(=O)[C@@H](NC(=O)[C@H](CC(C)(C)C)N(C)C(=O)[C@@H](NC(=O)[C@H](Cc3c[nH]c4ccccc34)NC(C)=O)[C@@H](C)O)CSCSC[C@@H](C(=O)N[C@@H](Cc3c[nH]c4ccccc34)C(=O)N3CCC[C@H]3C(N)=O)NC(=O)[C@H](CC(=O)O)NC(=O)[C@H](CCCCNC(=O)CN3CCN(CC(=O)O)CCN(CC(=O)O)CCN(CC(=O)O)CC3)NC(=O)[C@H](Cc3ccc4ccccc4c3)NC(=O)[C@H](CC(N)=O)NC2=O)CC1)C(=O)O)C(=O)O [compound 450, Ac-W-T-(NMe-tBuAla)-C(1)-[PipA(acetic-Lys-PEG24-gE-palmitoyl)]-N-(2Nal)-Lys(DOTA)-D-C(1)-W-P-CONH2] | < 1

test system: nude mice bearing SHP-77 tumors; test: Ex vivo biodistribution of radiolabeled peptides (% IA/g) in nude mice bearing SHP-77 tumors; conditions: [177Lu]Lu labelling, 24 hours post-injection, intravenous
Method: Mice were intravenously injected (via the lateral tail vein) with a bolus dose of the radiolabeled peptides for ex vivo biodistribution studies when tumor volumes were in range of 200-400 mm^3 for xenograft mice and when age of the mice was 5-7 weeks for tumor naïve mice studies. To assess the amount of radionuclide injected into individual mice the syringe was assayed in a dose calibrator before and after injection for [^177Lu]Lu-peptide, then the injected dose was determined from the weight difference and concentration of the radionuclide solution.
Mice were euthanized at pre-determined time points and selected tissues were resected and collected into pre-weighed tubes. The tubes were then reweighed post resection, the difference giving the weight of each tissue. Radioactivity in each tissue was measured using a gamma counter. Counts were decay corrected to the time of injection and percentage of injected activity per gram (% IA/g) was calculated for each tissue based on the injected activity into each individual mouse. Injected activity was converted to counts based on the sensitivity of the gamma counter. The counts in tissue were then converted to the percentage of injected activity and this was divided by the mass of tissue to give % IA/g.

Row | SMILES | kidney uptake (% IA/g) | tumor uptake (% IA/g)
6 | CC(=O)N[C@@H](Cc1c[nH]c2ccccc12)C(=O)N[C@H](C(=O)N(C)[C@@H](CC(C)(C)C)C(=O)N[C@H]1CSCSC[C@@H](C(=O)N[C@@H](Cc2c[nH]c3ccccc23)C(=O)N2CCC[C@@]2(C)C(=O)O)NC(=O)[C@H](CC(=O)O)NC(=O)[C@H](CCCCNC(=O)CN2CCN(CC(=O)O)CCN(CC(=O)O)CCN(CC(=O)O)CC2)NC(=O)[C@H](Cc2ccc3ccccc3c2)NC(=O)[C@H](CC(N)=O)NC(=O)[C@H](CC2CCNCC2)NC1=O)C(C)O (stereo partly drawn) [compound 443, Ac-W-T-(NMe-tBuAla)-C(1)-[3-(4-piperidinyl)-Ala]-N-(2Nal)-Lys(DOTA)-D-C(1)-W-(aMe-P)-CO2H] (Ac-W[Thr(3ξ)][NMetBuAla]C[Ala(piperidin-4-yl)]N[2Nal]K(DOTA)DCW[αMeP]-OH; linker 4-10 via CH2) | C (“C” represents 0 < % IA/g ≤ 10 in) | B (“B” represents % IA/g > 5 in tumor)
